≈ marks a conversion by molar mass, not a printed value.
Legend:
[1] = tested on: S. aureus ATCC 25923; assay: microbe, parasite or virus in culture
From the text: (§1) Clinical S. aureus strains were collected from patients with atopic dermatitis during their visits to the Outpatient Clinic and hospitalization in the Department of Dermatology, Venereology and Allergology at Medical University of Gdańsk (following the approval from the ethics committee, Approval Number NKBBN/242–477/2014). Reference strains of S. aureus ATCC 25923, S. aureus ATCC 33591, S. aureus ATCC 9144, and S. aureus ATCC 12598 were obtained from the American Type Culture Collection. All the strains were stored at − 80 °C in Roti®-Store cryo vials (Carl Roth GmbH, Karlsruhe, Germany) and before the tests were transferred into fresh Mueller–Hinton Medium (BioMaxima, Lublin, Poland) and incubated for 24 h at 37 °C. Subsequently, each bacterial inoculum was seeded on Mueller–Hinton agar plates (BioMaxima) and incubated again for 24 h. The cultures prepared in this way were used in further antimicrobial assays. Minimum inhibitory concentrations (MICs) were determined according to the Clinical and Laboratory Standards Institute recommendations. […] The experiments were conducted on 96-well microtiter plates, with a final volume of 100 μL. Additionally, in the case of daptomycin, the medium was supplemented with Ca^2+ (50 mg/L). Cell densities were adjusted spectrophotometrically (Multiskan™ GO Microplate Spectrophotometer, Thermo Scientific) at 600 nm. The MICs were taken as the lowest drug concentration at which a visible growth of the microorganisms was inhibited. Minimum biofilm eliminating concentrations (MBECs) were determined on 96-well flat-bottomed microtiter polystyrene plates with resazurin (7-hydroxy-3H-phenoxazin-3-one 10-oxide sodium salt) as a cell viability reagent. To do this, the plates were filled with 100 μL of the initial inoculums of bacteria (0.5 × 10^7 CFU/mL) in the Mueller–Hinton broth and incubated for 24 h at 37 °C. […] After 24 h of incubation, 20 μL of resazurin (4 mg/mL) was added to each well and the MBEC values were read. Minimum biofilm inhibitory concentrations (MBICs) were also determined on 96-well flat-bottomed microtiter polystyrene plates as described previously. To do this, 50 μL of the compounds in the concentration range, diluted MHB, were prepared. Subsequently, the 50 μL of the staphylococcal inoculums were added to reach the same density of bacteria as that in the MBEC assay. After 24 h of incubation at 37 °C, the wells were rinsed three times with PBS and the fresh medium (100 μL) with resazurin (0.6 mg/mL) was added. Then, after 1 h of incubation, MBICs were read. […] All experiments were conducted in triplicate.
(§2) Formation of the biofilm inside the PDMS flow chambers was performed using three peristaltic pumps working simultaneously (LP-pump, Kamush, Lipopharm, Poland) and sterile Tygon® 3350 silicone hoses (2.4 × 0.8 × 0.8 mm) with a length of 30 and 50 cm for inlet and outlet, respectively. Bacterial suspensions were prepared (0.5 × 10^7 CFU/mL) in sterile 50-mL test tubes, which were placed in a heating block at 37 °C. Before experiments, all channels were assessed for tightness and sterilized using a 70% 2-propanol solution (10 min, flow rate 1 mL/min) and rinsed with sterile PBS solution (10 min, flow 0.1 mL/min). The formation of biofilm inside the channels was divided into three stages: (1) adhesion—at this stage S. aureus suspensions were passed through the channels for 4 h at a flow rate of 0.1 mL/min; (2) rinsing—the previously used hoses were replaced with new sterile ones, and the channels were rinsed with sterile PBS solution for 10 min at a flow rate of 0.1 mL/min; (3) biofilm growth—after flushing the channels, the silicone hoses were placed in tubes with MHB medium, which was passed through the channels for 24 h at a flow rate of 0.1 mL/min. All experiments included growth and sterility controls.
(§3) This assay was conducted also on the S. aureus ATCC 25923 and S. aureus 33,591 (MRSA) strains.

[2] = tested on: S. aureus ATCC 33591 (MRSA); assay: microbe, parasite or virus in culture
From the text: as §1, §2, §3

[3] = tested on: S. aureus clinical strain 004N (MRSA); parameters: method as in earlier work; settings: clinical isolate 004N (MRSA), nasal swab; cited from earlier work
[4] = tested on: S. aureus clinical strain 005S; parameters: method as in earlier work; settings: clinical isolate 005S, skin; cited from earlier work
[5] = tested on: S. aureus clinical strain 009S; parameters: method as in earlier work; settings: clinical isolate 009S, skin; cited from earlier work
[6] = tested on: S. aureus clinical strain 015N (MRSA); parameters: method as in earlier work; settings: clinical isolate 015N (MRSA), nasal swab; cited from earlier work
[7] = tested on: S. aureus clinical strain 030N; parameters: method as in earlier work; settings: clinical isolate 030N, nasal swab; cited from earlier work
[8] = tested on: S. aureus clinical strain 031S; parameters: method as in earlier work; settings: clinical isolate 031S, skin; cited from earlier work
[9] = tested on: S. aureus clinical strain 043SC (MRSA); parameters: method as in earlier work; settings: clinical isolate 043SC (MRSA), skin of patient with furuncle folliculitis; cited from earlier work
[10] = tested on: S. aureus clinical strain 051N (MRSA); parameters: method as in earlier work; settings: clinical isolate 051N (MRSA), nasal swab; cited from earlier work
[11] = tested on: S. aureus clinical strain 060S; parameters: method as in earlier work; settings: clinical isolate 060S, skin; cited from earlier work
[12] = S. aureus 25923 biofilm treated under flow with Retro-Omiganan (half MBEC) for 24 h
[13] = S. aureus 25923 biofilm treated under flow with Retro-Omiganan (half MBEC) for 48 h
[14] = S. aureus 25923 biofilm treated under flow with Retro-Omiganan (half MBEC) for 72 h
[15] = Staphylococcus aureus, ATCC25923, 0 h
[16] = Staphylococcus aureus, ATCC25923, 24 h
[17] = Staphylococcus aureus, ATCC25923, 48 h
[18] = Staphylococcus aureus, ATCC25923, 72 h
[19] = S. aureus ATCC 33591 (MRSA) biofilm treated under flow with Retro-Omiganan (half MBEC) for 24 h
[20] = S. aureus ATCC 33591 (MRSA) biofilm treated under flow with Retro-Omiganan (half MBEC) for 48 h
[21] = S. aureus ATCC 33591 (MRSA) biofilm treated under flow with Retro-Omiganan (half MBEC) for 72 h

SMILES	MIC [1, 12] [µg/mL]	MIC [1, 13] [µg/mL]	MIC [1, 14] [µg/mL]	MIC [1, 15] [µg/mL]	MIC [1, 16] [µg/mL]	MIC [1, 17] [µg/mL]	MIC [1, 18] [µg/mL]	MIC [2, 19] [µg/mL]	MIC [2, 20] [µg/mL]	MIC [2, 21] [µg/mL]	MIC ([2]; Staphylococcus aureus, 0 h) [µg/mL]	MIC ([2]; Staphylococcus aureus, 24 h) [µg/mL]	Antimicrobial susceptibility (MIC) [3] [µg/mL]	Antimicrobial susceptibility (MIC) [4] [µg/mL]	Antimicrobial susceptibility (MIC) [6] [µg/mL]	Antimicrobial susceptibility (MIC) [7] [µg/mL]	Antimicrobial susceptibility (MIC) [8] [µg/mL]	Antimicrobial susceptibility (MIC) [9] [µg/mL]	Antimicrobial susceptibility (MIC) [10] [µg/mL]	Antimicrobial susceptibility (MIC) [11] [µg/mL]	further results
CCC[C@@H]1C[C@@H](C(=O)N[C@@H]([C@H]2O[C@H](SC)[C@H](O)[C@@H](O)[C@H]2O)[C@@H](C)O)N(C)C1 [Lincomycin]	1.0 (≈ 2.46 µM)	1.0 (≈ 2.46 µM)	1.0 (≈ 2.46 µM)	1 (≈ 2.46 µM)	1 (≈ 2.46 µM)	1 (≈ 2.46 µM)	1 (≈ 2.46 µM)	> 128	> 128	> 128	> 128	> 128	1	1	1	0.5	0.5	> 512	1	0.5	MIC ([2]; Staphylococcus aureus, 48 h): > 128 µg/mL; MIC ([2]; Staphylococcus aureus, 72 h): > 128 µg/mL; Antimicrobial susceptibility (MIC) [5]: 0.25 µg/mL
CCCCCCCCCC(=O)N[C@@H](Cc1c[nH]c2ccccc12)C(=O)N[C@H](CC(N)=O)C(=O)N[C@@H](CC(=O)O)C(=O)N[C@@H]1C(=O)NCC(=O)N[C@@H](CCCN)C(=O)N[C@@H](CC(=O)O)C(=O)N[C@H](C)C(=O)N[C@@H](CC(=O)O)C(=O)NCC(=O)N[C@H](CO)C(=O)N[C@@H]([C@H](C)CC(=O)O)C(=O)N[C@@H](CC(=O)c2ccccc2N)C(=O)O[C@@H]1C [Daptomycin]	–	–	–	–	–	–	–	–	1 (≈ 0.617 µM)	–	–	–	2	4	2	0.125	0.125	1	2	0.125	MIC ([1]; Staphylococcus aureus, ATCC25923, 0 h, S. aureus 25923, time 0 h (baseline, before peptide exposure)): 2 µg/mL (≈ 1.23 µM); MIC ([1]; Staphylococcus aureus, ATCC25923, 24 h, S. aureus 25923 biofilm treated under flow with Omiganan (half MBEC) for 24 h): 2 µg/mL (≈ 1.23 µM); MIC ([1]; Staphylococcus aureus, ATCC25923, 24 h, S. aureus 25923 biofilm treated under flow with Retro-Omiganan (half MBEC) for 24 h): 1 µg/mL (≈ 0.617 µM); MIC ([1]; Staphylococcus aureus, ATCC25923, 48 h, S. aureus 25923 biofilm treated under flow with Omiganan (half MBEC) for 48 h): 2 µg/mL (≈ 1.23 µM); MIC ([1]; Staphylococcus aureus, ATCC25923, 48 h, S. aureus 25923 biofilm treated under flow with Retro-Omiganan (half MBEC) for 48 h): 1 µg/mL (≈ 0.617 µM); MIC ([1]; Staphylococcus aureus, ATCC25923, 72 h, S. aureus 25923 biofilm treated under flow with Omiganan (half MBEC) for 72 h): 2 µg/mL (≈ 1.23 µM); MIC ([1]; Staphylococcus aureus, ATCC25923, 72 h, S. aureus 25923 biofilm treated under flow with Retro-Omiganan (half MBEC) for 72 h): 1 µg/mL (≈ 0.617 µM); MIC ([2]; S. aureus ATCC 33591 (MRSA), time 0 h (baseline, before peptide exposure)): 2 µg/mL (≈ 1.23 µM); MIC ([2]; Staphylococcus aureus, ATCC33591|MRSA, 0 h, S. aureus ATCC 33591 (MRSA), time 0 h (baseline, before peptide exposure)): 2 µg/mL (≈ 1.23 µM); MIC ([2]; Staphylococcus aureus, ATCC33591|MRSA, 24 h, S. aureus ATCC 33591 (MRSA) biofilm treated under flow with Omiganan (half MBEC) for 24 h): 2 µg/mL (≈ 1.23 µM); MIC ([2]; Staphylococcus aureus, ATCC33591|MRSA, 24 h, S. aureus ATCC 33591 (MRSA) biofilm treated under flow with Retro-Omiganan (half MBEC) for 24 h): 2 µg/mL (≈ 1.23 µM); MIC ([2]; Staphylococcus aureus, ATCC33591|MRSA, 48 h, S. aureus ATCC 33591 (MRSA) biofilm treated under flow with Omiganan (half MBEC) for 48 h): 2 µg/mL (≈ 1.23 µM); MIC ([2]; Staphylococcus aureus, ATCC33591|MRSA, 48 h, S. aureus ATCC 33591 (MRSA) biofilm treated under flow with Retro-Omiganan (half MBEC) for 48 h): 1 µg/mL (≈ 0.617 µM); MIC ([2]; Staphylococcus aureus, ATCC33591|MRSA, 72 h, S. aureus ATCC 33591 (MRSA) biofilm treated under flow with Omiganan (half MBEC) for 72 h): 2 µg/mL (≈ 1.23 µM); MIC ([2]; Staphylococcus aureus, ATCC33591|MRSA, 72 h, S. aureus ATCC 33591 (MRSA) biofilm treated under flow with Retro-Omiganan (half MBEC) for 72 h): 1 µg/mL (≈ 0.617 µM); Antimicrobial susceptibility (MIC) [5]: 0.5 µg/mL
CC[C@H]1OC(=O)[C@H](C)[C@@H](O[C@H]2C[C@@](C)(OC)[C@@H](O)[C@H](C)O2)[C@H](C)[C@@H](O[C@@H]2O[C@H](C)C[C@H](N(C)C)[C@H]2O)[C@](C)(O)C[C@@H](C)C(=O)[C@H](C)[C@@H](O)[C@]1(C)O [Erythromycin]	≤ 0.25	≤ 0.25	≤ 0.25	≤ 0.25	≤ 0.25	≤ 0.25	≤ 0.25	–	–	–	–	–	–	–	32	0.25	–	> 512	–	–	–
CC1(C)S[C@@H]2[C@H](NC(=O)[C@H](N)c3ccccc3)C(=O)N2[C@H]1C(=O)O [Ampicillin]	0.5 (≈ 1.43 µM)	0.5 (≈ 1.43 µM)	0.5 (≈ 1.43 µM)	0.5 (≈ 1.43 µM)	0.5 (≈ 1.43 µM)	0.5 (≈ 1.43 µM)	0.5 (≈ 1.43 µM)	> 128	> 128	> 128	> 128	> 128	0.5	8	16	0.5	0.5	32	0.25	0.25	MIC ([2]; Staphylococcus aureus, 48 h): > 128 µg/mL; MIC ([2]; Staphylococcus aureus, 72 h): > 128 µg/mL

Source: paper PMC12055641, “The Study of Antistaphylococcal Potential of Omiganan and Retro-Omiganan Under Flow Conditions” (Probiotics and Antimicrobial Proteins, 2024)
